The record followed here is article PMC3201722 (NMR in biomedicine, 2011).

The target of this assay is T1, choline kinase (CK) [EC 2.7.1.32] (Saccharomyces cerevisiae, UniProt P20485).
T1 sequence (P20485 2-582): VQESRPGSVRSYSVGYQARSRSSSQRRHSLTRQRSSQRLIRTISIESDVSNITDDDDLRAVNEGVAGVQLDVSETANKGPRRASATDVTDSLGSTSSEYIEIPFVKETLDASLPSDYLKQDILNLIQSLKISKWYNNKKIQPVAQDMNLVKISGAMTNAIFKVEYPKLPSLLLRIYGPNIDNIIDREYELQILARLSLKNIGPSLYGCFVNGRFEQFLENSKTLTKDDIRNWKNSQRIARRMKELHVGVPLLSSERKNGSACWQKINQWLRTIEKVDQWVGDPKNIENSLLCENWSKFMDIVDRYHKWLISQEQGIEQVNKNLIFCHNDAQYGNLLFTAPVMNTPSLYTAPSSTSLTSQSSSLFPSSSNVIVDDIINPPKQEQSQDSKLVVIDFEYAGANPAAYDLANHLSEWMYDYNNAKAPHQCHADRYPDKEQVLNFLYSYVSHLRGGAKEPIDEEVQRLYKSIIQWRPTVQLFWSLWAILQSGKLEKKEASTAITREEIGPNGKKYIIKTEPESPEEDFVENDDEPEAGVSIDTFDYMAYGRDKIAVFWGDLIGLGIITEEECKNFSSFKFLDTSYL
As to the kind of experiment: 1H NMR. Format: biochemical.

As a reminder, the IC50 is the concentration needed to halve the response being measured. Higher therefore signals lower potency. Consider `CN1CC[C@H](c2c(O)cc(O)c3c(=O)cc(-c4ccccc4Cl)oc23)[C@H](O)C1` [flavopiridol], for which the IC50 was less than 500 nM.
